In patent publication US20260355199A1, “COMPOSITIONS AND METHODS FOR TREATING OR PREVENTING NONALCOHOLIC STEATOHEPATITIS (NASH), ANOREXIA, DEPRESSION, ENDOMETRIOSIS, AND OTHER DISEASES OR DISORDERS” (priority 2022, published 2026):
Entries after “also recorded” stand apart in the source; their conditions may differ.

Columns and labels:
[1] = system: AGRP, NPY, and VGAT; assay: AGRP, NPY and VGAT expression in the ARC of mice; type: in vivo, mouse; conditions: Bobcat339 vs. vehicle mice
Procedure: The GFP construct used for tagging AgRP neurons labels almost exclusively the perikaryon. The presence of AGRP, NPY, and VGAT outside the perikarya reflected the fact that these fast-firing neurons transport their neuromodulatory products rabidly to the neuronal processes.
(§1) Bobcat339 powder (Sigma-Aldrich, SML2611) was freshly dissolved in DMSO (vehicle) at a concentration of 50 mg/mL and filtered through a 0.22 micron. It was further diluted with 1×PBS to a final concentration of 0.5 mg/mL before injections. Mice were injected intraperitoneally with Bobcat339 at 1 mg/kg, 2.5 mg/kg, or 4 mg/kg.
Total RNAs were extracted from neuronal cells or homogenized hypothalamic arcuate nucleus tissue samples using PureLink RNA Mini Kit (Ambion, 12183025). cDNA was synthesized using PrimeScript RT Reagent Kit in a 20 μl reaction containing 0.5-1 μg of total RNA. Real-time quantitative PCR was performed in a 15 μl reaction containing 0.5-1 μl of cDNA using SsoAdvanced Universal SYBR Green Supermix in a Bio-Rad iCycler. Specificity was verified by melting curve analysis. The Ct values of each sample were used in the post-PCR data analysis. […]
The immunofluorescence for brain slices was conducted using previous methods (18). […] The sections were coverslipped and scoped using a Keyence BZ-X700 fluorescence microscope. The fluorescence signals from GFP in AgRP neurons were detected without immunostaining.

[2] = system: activity-based anorexia (ABA) mice; assay: Activity-based anorexia (ABA) model; type: in vivo, mouse
From the text: The importance of AgRP neurons in psychiatric conditions such as anorexia was further underscored by a recent report showing that chemogenetic activation of AgRP neurons in mice during ABA attenuated bodyweight loss with reduction in excessive physical activity (Hickey et al., 2022, Mol Psychiatry). […] Thus, peripubertal female mice were exposed to the ABA paradigm as previously described (Miletta, M. C. et al., 2020, Nature Metabolism, 2:1204-1211). Mice were singly housed at postnatal day 36 (P36) with ad libitum access to food, water, and a running wheel. After 4 days of acclimation at P40, mice were food restricted with free access to food for only 2 h daily for 3 days. At P40 and before the onset of food restriction, mice received first intraperitoneal (i.p.) injection of Bobcat339 or vehicle, with second and third injections performed at P47 and P54, respectively (FIG. 17A).
as §1
On P36, animals were single housed with free access to food and water and 24 h access to a running wheel. After 4 days of acclimation, on P40, all food was removed from the cage and returned only for 2 h daily (free food access from 19:00 to 21:00) and 24 h access to a running wheel for 3 days. On P43, 24 h ad libitum access to food was returned and the running wheel access was blocked to allow the animals to recover. The animals were allowed to recover for at least 1 week before undergoing behavioral testing. Continuous multiday analysis of running wheel activity was recorded using VitalView Data Acquisition System software version 5.1 (Starr Life Science). Food intake was measured after measurement of the food pellets before and after the 2 h food restriction. Body weight was monitored in the morning. Body composition was assessed using EchoMRI analysis.

SMILES: Nc1nc(=O)n(-c2cccc(-c3ccccc3)c2)cc1Cl [Bobcat339, 4-Amino-1-[1,1′-biphenyl]-3-yl-5-chloro-2(1H)-pyrimidinone]
- AGRP, NPY, and VGAT protein in the ARC [1]: increased productions of AGRP, NPY, and VGAT; also recorded: a marked increase in their expressions
- Agrp, Npy and Slc32a1 mRNA in the ARC [1]: Increases in the mRNA levels of Agrp, Npy and Slc32a1; also recorded: increased expressions of Agrp, Npy, and Slc32a1
- lethality in the ABA model ([2]; ABA): diminished lethality
- body weight, daily food intake, and running wheel account ([2]; ABA, acclimation): no differences
- body weight ([2]; ABA, food restriction): able to maintain their body weight throughout the experiment
- food intake ([2]; ABA, food restriction): increased feeding; also recorded: a significant increase in food intake
- wheel running ([2]; ABA, food restriction): decreased compulsive running; also recorded: decline in compulsive wheel running
- body composition ([2]; end of the recovery period): No differences in body composition
- onset of appetite-stimulating and anti-stress effects ([2]; i.p.): ≤ 24 h
- duration of appetite-stimulating and anti-stress effects ([2]; single i.p. injection): lasted for at least one week
- therapeutic effect in a mouse model of anorexia ([2]; summary): elicited therapeutic effects in a mouse model of anorexia
